Numbers after ± are expanded uncertainties.
Columns and labels:
[1] = 298.15 K, Ring tensiometer
[2] = xn = mol fraction of the nth substance listed; details: 298.15 K, Ring tensiometer

OCCO [1,2-ethanediol]
Details	surface tension liquid-gas [mN/m]
[1]	47.8 ± 0.6

OCCO [1,2-ethanediol] + O
[2]
Details	surface tension liquid-gas [mN/m]
x1 = 0.008251	70.8 ± 2
x1 = 0.01012	70.7 ± 2
x1 = 0.01185	70.4 ± 2
x1 = 0.01423	70.2 ± 1.9
x1 = 0.01585	69.7 ± 1.9
x1 = 0.01823	69.6 ± 1.9
x1 = 0.02	69.4 ± 1.9
x1 = 0.02198	69.2 ± 1.9
x1 = 0.02488	68.8 ± 1.9
x1 = 0.02992	68.2 ± 1.9
x1 = 0.03542	67.7 ± 1.9
x1 = 0.0401	67.3 ± 1.8
x1 = 0.04519	66.6 ± 1.8
x1 = 0.101	62.5 ± 1.6
x1 = 0.2	57.9 ± 1.4

CC(=O)CC(C)=O [2,4-pentanedione]
Details	surface tension liquid-gas [mN/m]
[1]	30.9 ± 0.5

CC(=O)CC(C)=O [2,4-pentanedione] + O
[2]
Details	surface tension liquid-gas [mN/m]
x1 = 0.000205	70.7 ± 2
x1 = 0.000412	70.1 ± 2
x1 = 0.00049	69.9 ± 2
x1 = 0.000578	69.5 ± 1.9
x1 = 0.000783	69.1 ± 1.9
x1 = 0.001016	68.3 ± 1.9
x1 = 0.001976	65.5 ± 1.8
x1 = 0.004045	61.4 ± 1.7
x1 = 0.004973	59.8 ± 1.7
x1 = 0.006054	58.3 ± 1.6
x1 = 0.008089	55.6 ± 1.6
x1 = 0.0103	53.3 ± 1.5

CCOCCOC(C)=O [2-ethoxyethyl ethanoate]
Details	surface tension liquid-gas [mN/m]
[1]	28.7 ± 0.5

CCOCCOC(C)=O [2-ethoxyethyl ethanoate] + O
[2]
Details	surface tension liquid-gas [mN/m]
x1 = 0.000101	70 ± 2
x1 = 0.000178	68.9 ± 1.9
x1 = 0.00019	68.4 ± 1.9
x1 = 0.000221	67.9 ± 1.9
x1 = 0.000407	66 ± 1.9
x1 = 0.00046	65.6 ± 1.8
x1 = 0.000582	64.5 ± 1.8
x1 = 0.000777	63.5 ± 1.8
x1 = 0.000958	62.4 ± 1.8
x1 = 0.001352	60.3 ± 1.7
x1 = 0.003046	55.2 ± 1.6
x1 = 0.005086	51.2 ± 1.4
x1 = 0.007004	48.6 ± 1.4
x1 = 0.01091	44.7 ± 1.3
x1 = 0.013	43.2 ± 1.2
x1 = 0.01497	41.4 ± 1.2

CCCCO [butan-1-ol]
Details	surface tension liquid-gas [mN/m]
[1]	24.3 ± 0.4

CCCCO [butan-1-ol] + O
[2]
Details	surface tension liquid-gas [mN/m]
x1 = 0.000138	69.4 ± 1.9
x1 = 0.000235	68.8 ± 1.9
x1 = 0.000292	68.1 ± 1.9
x1 = 0.000392	66.9 ± 1.9
x1 = 0.000596	64.4 ± 1.8
x1 = 0.000778	62.5 ± 1.8
x1 = 0.001004	60.4 ± 1.7
x1 = 0.001457	56.5 ± 1.6
x1 = 0.001997	53.9 ± 1.5
x1 = 0.002872	49.2 ± 1.4
x1 = 0.003931	45.8 ± 1.3
x1 = 0.006003	40.7 ± 1.2
x1 = 0.006847	38.3 ± 1.1
x1 = 0.008156	36.4 ± 1
x1 = 0.01013	33.7 ± 1
x1 = 0.01204	31.1 ± 0.9
x1 = 0.01288	29.9 ± 0.9
x1 = 0.01411	29.1 ± 0.8

CCC(C)O (stereo unspecified) [butan-2-ol]
Details	surface tension liquid-gas [mN/m]
[1]	23.3 ± 0.4

CCC(C)O (stereo unspecified) [butan-2-ol] + O
[2]
Details	surface tension liquid-gas [mN/m]
x1 = 0.000154	70.2 ± 2
x1 = 0.000211	69.7 ± 2
x1 = 0.000443	67.3 ± 1.9
x1 = 0.000718	64.8 ± 1.8
x1 = 0.001	62.6 ± 1.8
x1 = 0.001994	57.5 ± 1.6
x1 = 0.003914	50.9 ± 1.4
x1 = 0.005882	46.4 ± 1.3
x1 = 0.00799	43.1 ± 1.2
x1 = 0.009938	40.6 ± 1.2
x1 = 0.01199	38.5 ± 1.1
x1 = 0.01394	36.8 ± 1.1

CCC(C)=O [butanone]
Details	surface tension liquid-gas [mN/m]
[1]	24.2 ± 0.4

CCC(C)=O [butanone] + O
[2]
Details	surface tension liquid-gas [mN/m]
x1 = 5.71e-05	71.8 ± 2
x1 = 7.54e-05	71.7 ± 2
x1 = 8.96e-05	71.5 ± 2
x1 = 0.000112	71.3 ± 2
x1 = 0.000296	70 ± 2
x1 = 0.000522	68.9 ± 1.9
x1 = 0.000741	67.8 ± 1.9
x1 = 0.000855	67.3 ± 1.9
x1 = 0.000997	66.8 ± 1.9
x1 = 0.002056	63.1 ± 1.8
x1 = 0.00405	58.6 ± 1.6
x1 = 0.006112	55.1 ± 1.5
x1 = 0.008019	52.7 ± 1.5
x1 = 0.01022	50.4 ± 1.4
x1 = 0.01205	48.8 ± 1.4
x1 = 0.01413	47.4 ± 1.3

OC1CCCC1 [cyclopentanol]
Details	surface tension liquid-gas [mN/m]
[1]	32.8 ± 0.5

OC1CCCC1 [cyclopentanol] + O
[2]
Details	surface tension liquid-gas [mN/m]
x1 = 0.000201	70.8 ± 2
x1 = 0.000369	69.6 ± 2
x1 = 0.000525	68.5 ± 1.9
x1 = 0.000574	68 ± 2
x1 = 0.000713	67.3 ± 1.9
x1 = 0.000986	65.1 ± 1.8
x1 = 0.001816	60.2 ± 1.7
x1 = 0.002519	57.5 ± 1.6
x1 = 0.002728	56.3 ± 1.6
x1 = 0.003934	52.6 ± 1.5
x1 = 0.005255	49.6 ± 1.4
x1 = 0.005987	48.3 ± 1.4
x1 = 0.008154	44.8 ± 1.3
x1 = 0.01025	42.4 ± 1.2
x1 = 0.01189	40.6 ± 1.1
x1 = 0.01448	38.4 ± 1.1

O=C1CCCC1 [cyclopentanone]
Details	surface tension liquid-gas [mN/m]
[1]	33 ± 0.5

O=C1CCCC1 [cyclopentanone] + O
[2]
Details	surface tension liquid-gas [mN/m]
x1 = 0.000186	71.1 ± 2
x1 = 0.000367	70.3 ± 2
x1 = 0.000559	69.6 ± 2
x1 = 0.000768	68.9 ± 1.9
x1 = 0.000966	68.3 ± 1.9
x1 = 0.001362	67 ± 1.9
x1 = 0.002445	63.6 ± 1.8
x1 = 0.003863	61.1 ± 1.7
x1 = 0.006022	57.8 ± 1.6
x1 = 0.007908	55.5 ± 1.6
x1 = 0.009964	53.7 ± 1.5
x1 = 0.01215	52 ± 1.5
x1 = 0.01428	50.3 ± 1.4

CCOC(C)=O [ethyl acetate]
Details	surface tension liquid-gas [mN/m]
[1]	23.7 ± 0.4

CCOC(C)=O [ethyl acetate] + O
[2]
Details	surface tension liquid-gas [mN/m]
x1 = 0.000189	69.6 ± 2
x1 = 0.000351	67.7 ± 1.9
x1 = 0.000617	65.2 ± 1.8
x1 = 0.000819	63.7 ± 1.8
x1 = 0.000997	62.3 ± 1.8
x1 = 0.002074	57.3 ± 1.6
x1 = 0.003938	51.2 ± 1.4
x1 = 0.006035	46.7 ± 1.3
x1 = 0.008035	43.4 ± 1.2
x1 = 0.009946	40.5 ± 1.1
x1 = 0.01195	37.8 ± 1.1
x1 = 0.01401	35.2 ± 1

COC(=O)CC(C)=O [methyl 3-oxobutanoate]
Details	surface tension liquid-gas [mN/m]
[1]	35.7 ± 0.5

COC(=O)CC(C)=O [methyl 3-oxobutanoate] + O
[2]
Details	surface tension liquid-gas [mN/m]
x1 = 0.000186	71.1 ± 2
x1 = 0.000411	70.4 ± 2
x1 = 0.000609	69.9 ± 2
x1 = 0.000793	69.3 ± 1.9
x1 = 0.001003	68.6 ± 1.9
x1 = 0.001822	66.6 ± 1.9
x1 = 0.003971	62.4 ± 1.8
x1 = 0.005842	60.2 ± 1.7
x1 = 0.008086	57.8 ± 1.6
x1 = 0.00996	56.1 ± 1.6
x1 = 0.01206	54.5 ± 1.5
x1 = 0.01404	53.2 ± 1.5

CCC#N [propanenitrile]
Details	surface tension liquid-gas [mN/m]
[1]	26.9 ± 0.4

CCC#N [propanenitrile] + O
[2]
Details	surface tension liquid-gas [mN/m]
x1 = 0.000183	71.6 ± 2
x1 = 0.000368	71 ± 2
x1 = 0.000563	70.3 ± 2
x1 = 0.000784	69.5 ± 1.9
x1 = 0.000963	69.2 ± 1.9
x1 = 0.001988	66.6 ± 1.9
x1 = 0.003895	62.9 ± 1.8
x1 = 0.005968	59.5 ± 1.7
x1 = 0.008178	56.6 ± 1.6
x1 = 0.01015	54.2 ± 1.5
x1 = 0.012	52.4 ± 1.5
x1 = 0.01434	49.9 ± 1.4

O [water]
Details	surface tension liquid-gas [mN/m]
[1]	71.95 ± 2

From the NIST ThermoML archive (doi:10.1021/je049955d)
